This is an account of results in patent US20140066365A1, “USE OF CALIXARENES ASSOCIATED WITH AN ANTIBIOTIC IN THE TREATMENT OF BACTERIAL INFECTIONS” (priority 2011, published 2014).

Format in all cases: cell-based
Assay [1] has as its system EcR1: Penicillinase-Producing Escherichia coli without Associated Resistance. Briefly: Antibiogram by the disk diffusion technique. To be noted: for MIC mg/L (diameter in mm): EcR1, cells that print a diameter, Table A2; for CA-SFM Interpretation: EcR1, diameter against CA-SFM 2011 limits; for CLSI Interpretation: EcR1, diameter against CLSI 2011 limits; for EUCAST Interpretation: EcR1, diameter against EUCAST 2011 limits; for Diameter: EcR1, disk diffusion; for Diameter / Results: Table A1; for Results: EcR1, interpretation of the diameter against Dmin Dmax. The procedure:
(§1) 5.1 EcR1: Penicillinase-Producing Escherichia coli without Associated Resistance The bacterial and antibiogramidentification is carried out by the VITEK 2 system (bioMérieux) and by the disk diffusion technique.
In general terms: A growth-free zone around the sample is the usual read-out of agar diffusion tests.

Assay [2] has as its system EcR2: Cephalosporinase-Hyperproducing Strain of Escherichia coli. Kind of assay: Antibiogram, MIC by the VITEK 1 system. To be noted: for Results: EcR2, Table B1; for CA-SFM Interpretation: Cc CA-SFM 2011; for CLSI Interpretation: Cc CLSI 2011; for MIC: Escherichia coli. The method, then:
The bacterial and antibiogramidentification is carried out by the VITEK 1 system (bioMérieux) and by the disk diffusion technique

For assay [3], the system named is EcR1: Penicillinase-Producing Escherichia coli without Associated Resistance. Kind of assay: Antibiogram, MIC by the VITEK 2 system. The following applies: for CA-SFM Interpretation: EcR1, MIC against Cc CA-SFM 2011; for CLSI Interpretation: EcR1, MIC against Cc CLSI 2011; for EUCAST Interpretation: EcR1, MIC against Cc EUCAST 2011; for Results: EcR1, interpretation of the MIC, Table A1; for MIC: Escherichia coli. The procedure:
as §1

The subject of assay [4] is EcR3: ESBL-Producing Escherichia coli. Kind of assay: Antibiogram by the disk diffusion technique. The following applies: for CA-SFM Interpretation: Cd CA-SFM 2011; for Diameter: Table C1; for Results: Table C1, against Dmin Dmax; for diameter in mm: Table C2. The procedure: The bacterial and antibiogramidentification is carried out by the VITEK 2 system (bioMerieux) and by the disk diffusion technique

For assay [5], the system named is PaR5: Pseudomonas aeruginosa. Briefly: Antibiogram by the disk diffusion technique. The following applies: for Diameter / Results: Table I1; for Results: against Dmin-Dmax. The procedure:
(§2) The bacterial and antibiogramidentification is carried out by the VITEK 2 system (bioMérieux) and by the disk diffusion technique

In assay [6] the test system is PaR3: Pseudomonas aeruginosa. Briefly: Antibiogram, MIC by the VITEK 2 system. The method, then:
(§3) The bacterial and antibiogramidentification is carried out by the VITEK 2 system (bioMérieux)

In assay [7] the test system is SaR4: Meticillin-Resistant Staphylococcus aureus. Briefly: Antibiogram, MIC by the VITEK 2 system. The following applies: SaR4; for MIC: Staphylococcus aureus, read-out: MIC. The method, then: as §2
The test system of assay [8] is SaR1: Meticillin-Resistant Staphylococcus aureus without Associated Resistance. Kind of assay: Antibiogram, MIC by the VITEK 2 system. To be noted: SaR1; for MIC: Staphylococcus aureus, read-out: MIC; for CA-SFM Interpretation: Cc CA-SFM 2011; for CLSI Interpretation: Cc CLSI 2011; for EUCAST Interpretation: Cc EUCAST 2011; for Results: from MIC. The procedure:
as §3

[9] abbreviates: EcR2, VITEK 1, Table B1, read-out: MIC.
The mark [10] stands for this setting: EcR2, Table B2, MIC, read-out: MIC.
[11] abbreviates: EcR1, Table A2, read-out: MIC mg/L (diameter in mm).
The mark [12] stands for this setting: EcR1, VITEK 2, Table A1, read-out: MIC.

Values after ≈ are worked out from the molar mass of the structure shown. Like-named read-outs stand apart in the source and are kept apart here.

As for `C[C@H]1[C@H](NC(=O)/C(=N\OC(C)(C)C(=O)O)c2csc(N)n2)C(=O)N1S(=O)(=O)O` [Aztreonam], in assay [1], the “MIC mg/L (diameter in mm)” value was found to be 28 mm, the “CA-SFM Interpretation” value is on record as “Susceptible”, the “CLSI Interpretation” value is on record as “Susceptible” and the “EUCAST Interpretation” value was “Susceptible”. In assay [1], the Diameter came out at 28 mm and the Results result was “Susceptible”.

In the case of `CC(=O)OCC1=C(C(=O)O)N2C(=O)[C@@H](NC(=O)Cc3cccs3)[C@H]2SC1` [C1G, Cefalotine], the Diameter in assay [1] is 17 mm; in assay [4] it was 6 mm. The Results entry in assay [1] is on record as “Intermediate”; in assay [2], “Resistant”; in assay [3] it was “Susceptible”; in assay [4], “Resistant”. The “CA-SFM Interpretation” value in assay [2] (EcR2, from MIC) is reported as “Resistant”; in assay [3], “Susceptible”; in assay [4], “Resistant”. Besides, the “CLSI Interpretation” value in assay [2] (EcR2, from MIC) is given as “Resistant”; in assay [3], “Susceptible”; in assay [4] (Cd CLSI 2011), “Resistant”. The “EUCAST Interpretation” value in assay [2] (EcR2, from MIC, Cc EUCAST 2011) is recorded as “Resistant”; in assay [3], “Susceptible”. In addition, the MIC in assay [2] (setting [9]) was at least 64 mg/L; in assay [2] (setting [10]), at least 64 mg/L; in assay [3] (setting [11]), 4 mg/L (≈ 10.1 µM); in assay [3] (setting [12]), 4 mg/L (≈ 10.1 µM). For the same molecule, the diameter in mm in assay [4] came to 6 mm.

For `CO/N=C(\C(=O)N[C@@H]1C(=O)N2C(C(=O)[O-])=C(C[N+]3(C)CCCC3)CS[C@H]12)c1csc(N)n1` [Cefepime], in assay [1], the “MIC mg/L (diameter in mm)” value is 27 mm, the “CA-SFM Interpretation” value is recorded as “Susceptible”, the “CLSI Interpretation” value is “Susceptible” and the “EUCAST Interpretation” value is “Susceptible”. In addition, in assay [1], the Diameter stood at 27 mm and the Results entry was “Susceptible”.

Consider `O=C(O)c1cn(C2CC2)c2cc(N3CCNCC3)c(F)cc2c1=O` [Ciprofloxacin], for which the Results entry in assay [1] was “Susceptible”. Also, in assay [4], the “CA-SFM Interpretation” value was “Susceptible” and the Results entry is on record as “Susceptible”.

`C[C@@H](O)[C@H]1C(=O)N2C(C(=O)O)=C(S[C@@H]3CN[C@H](C(=O)N(C)C)C3)[C@H](C)[C@H]12` [Meropenem] came in with a Diameter in assay [5] (PaR5) of 34 mm. Moreover, the Results entry in assay [5] (PaR5) is “Susceptible”; in assay [6] (Table H1), “Resistant”. The diameter in mm in assay [5] (disk diffusion inhibition diameter, strain PaR5) was 34 mm. Further, the “CA-SFM Interpretation” value in assay [5] (disk diffusion, PaR5, versus critical diameter CA-SFM 2011) is recorded as “Susceptible”; in assay [6] (Cc CA-SFM 2011), “Resistant”. Also, the “CLSI Interpretation” value is “Susceptible” in assay [5] (disk diffusion, PaR5, versus critical diameter CLSI 2011) and “Resistant” in assay [6] (Cc CLSI 2011). The “EUCAST Interpretation” value in assay [5] (disk diffusion, PaR5, versus critical diameter EUCAST 2011, for ** antibiotics the disk load differs and the EUCAST interpretation is not applicable) is “Susceptible”; in assay [6] (Cc EUCAST 2011), “Resistant”. For the same molecule, the MIC in assay [6] (Pseudomonas aeruginosa, Table H2, read-out: MIC) was at least 16 µg/mL; in assay [6] (Table H1), “≧16”.

As for `CCn1cc(C(=O)O)c(=O)c2ccc(C)nc21` [Nalidixic acid], the Results result in assay [2] is “Resistant”; in assay [3], “Susceptible”. The “CA-SFM Interpretation” value in assay [2] (EcR2, from MIC) was “Resistant”; in assay [3] it was “Susceptible”. Besides, the “CLSI Interpretation” value was “Resistant” in assay [2] (EcR2, from MIC) and “Susceptible” in assay [3]. Besides, the MIC was at least 32 mg/L in assay [2], at least 32 mg/L in assay [2] (read-out: MIC mg/L), at most 2 mg/L in assay [3] (read-out: MIC mg/L) and at most 2 mg/L in assay [3] (read-out: MIC mg/L (diameter in mm)).

`O=C1CN(/N=C/c2ccc([N+](=O)[O-])o2)C(=O)N1` [Nitrofurantoin]: the MIC was at most 25 µg/mL in assay [7] (Table F1); at most 25 µg/mL in assay [7] (Table F2, MIC); at most 25 mg/L in assay [2] (setting [9]); at most 25 mg/L in assay [2] (setting [10]); at most 16 mg/L in assay [3] (setting [11]); at most 16 mg/L in assay [3] (setting [12]). The MIC in assay [8] (Table D1) was at most 16 µg/mL. Besides, the “MIC mg/L” value in assay [8] (Table D2) is “≦16 mg/L”.

As to `CCn1cc(C(=O)O)c(=O)c2cc(F)c(N3CCNCC3)cc21` [Norfloxacin], in assay [3], the “CA-SFM Interpretation” value is reported as “Susceptible”, the “CLSI Interpretation” value is listed as “Susceptible”, the “EUCAST Interpretation” value was “Susceptible” and the Results entry is “Susceptible”. Besides, the MIC in assay [3] (setting [11]) is at most 0.5 mg/L. The MIC in assay [3] (setting [12]) is at most 0.5 mg/L.

In the case of `CCn1cc(C(=O)O)c(=O)c2cc(F)c(N3CCNCC3)cc21` [Norofloxacin], in assay [5] (PaR5), the Diameter worked out at 17 mm and the Results result is given as “Resistant”.

In the case of `Cc1onc(-c2ccccc2)c1C(=O)N[C@@H]1C(=O)N2[C@@H]1SC(C)(C)[C@@H]2C(=O)O` [Oxacillin], the Results entry in assay [7] (Table F1, MIC) is given as “Resistant”; in assay [8] (Table D1), “Resistant”. For the same molecule, the “CA-SFM Interpretation” value in assay [7] (from MIC, Cc CA-SFM 2011) was “Resistant”; in assay [8], “Resistant”. In addition, the “CLSI Interpretation” value is reported as “Resistant” in assay [7] (from MIC, Cc CLSI 2011) and “Resistant” in assay [8]. Moreover, the “EUCAST Interpretation” value in assay [7] (from MIC, Cc EUCAST 2011) is “Resistant”; in assay [8], “Resistant”. The MIC in assay [7] (Table F1) is at least 8 µg/mL; in assay [7] (Table F2, MIC), at least 8 µg/mL; in assay [8] (Table D1), at least 8 µg/mL. Also, in assay [8] (Table D2), the “MIC mg/L” value is “≧8 mg/L”.

Consider `CCn1cc(C(=O)O)c(=O)c2cc(F)c(N3CCN(C)CC3)cc21` [Pefloxacin], for which the Diameter in assay [1] is 26 mm; in assay [4], 23 mm. Besides, in assay [2], the Results entry was “Resistant”. The “CA-SFM Interpretation” value in assay [2] (EcR2, from MIC) is “Resistant”; in assay [4], “Susceptible”. The MIC in assay [2] (setting [9]) and in assay [2] (setting [10]) was at least 8 mg/L in each case. For the same molecule, in assay [4], the diameter in mm is listed as 23 mm.

In the case of `CN(C)[C@@H]1C(O)=C(C(N)=O)C(=O)[C@@]2(O)C(O)=C3C(=O)c4c(O)cccc4[C@@](C)(O)[C@H]3C[C@@H]12` [Tetracycline], the MIC in assay [7] (Table F1) is at most 1 µg/mL; in assay [7] (Table F2, MIC) it was at most 1 µg/mL.

Turning to Quinupristin-dalfopristin, in assay [8], the “CA-SFM Interpretation” value is “Susceptible”, the “CLSI Interpretation” value is “Susceptible” and the “EUCAST Interpretation” value is “Susceptible”. Further, in assay [8] (Table D1), the “MIC mg/L” value is given as “≦0.25 mg/L” and the Results entry is “Susceptible”. Moreover, the “MIC mg/L” value in assay [8] (Table D2) is given as “≦0.25 mg/L”.
